From ChEMBL document CHEMBL1201862, “PubChem BioAssay data set” (2004)
One block for each compound: values may come before it. Calls of active or inactive are those of the source.

Key:
[1] = target: Ubiquitin carboxyl-terminal hydrolase BAP1 (Homo sapiens, UniProt Q92560); assay: BAP1 deubiquitinase inhibitors, dose response, biochemical (AID 714); assay type: functional
[2] = target: Voltage-dependent T-type calcium channel subunit alpha-1H (Homo sapiens, UniProt O95180); assay type: functional;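 also: channel activity triggered by adding a high calcium stimulation buffer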
Voltage-dependent T-type calcium channel subunit alpha-1H, sequence (O95180 whole entry): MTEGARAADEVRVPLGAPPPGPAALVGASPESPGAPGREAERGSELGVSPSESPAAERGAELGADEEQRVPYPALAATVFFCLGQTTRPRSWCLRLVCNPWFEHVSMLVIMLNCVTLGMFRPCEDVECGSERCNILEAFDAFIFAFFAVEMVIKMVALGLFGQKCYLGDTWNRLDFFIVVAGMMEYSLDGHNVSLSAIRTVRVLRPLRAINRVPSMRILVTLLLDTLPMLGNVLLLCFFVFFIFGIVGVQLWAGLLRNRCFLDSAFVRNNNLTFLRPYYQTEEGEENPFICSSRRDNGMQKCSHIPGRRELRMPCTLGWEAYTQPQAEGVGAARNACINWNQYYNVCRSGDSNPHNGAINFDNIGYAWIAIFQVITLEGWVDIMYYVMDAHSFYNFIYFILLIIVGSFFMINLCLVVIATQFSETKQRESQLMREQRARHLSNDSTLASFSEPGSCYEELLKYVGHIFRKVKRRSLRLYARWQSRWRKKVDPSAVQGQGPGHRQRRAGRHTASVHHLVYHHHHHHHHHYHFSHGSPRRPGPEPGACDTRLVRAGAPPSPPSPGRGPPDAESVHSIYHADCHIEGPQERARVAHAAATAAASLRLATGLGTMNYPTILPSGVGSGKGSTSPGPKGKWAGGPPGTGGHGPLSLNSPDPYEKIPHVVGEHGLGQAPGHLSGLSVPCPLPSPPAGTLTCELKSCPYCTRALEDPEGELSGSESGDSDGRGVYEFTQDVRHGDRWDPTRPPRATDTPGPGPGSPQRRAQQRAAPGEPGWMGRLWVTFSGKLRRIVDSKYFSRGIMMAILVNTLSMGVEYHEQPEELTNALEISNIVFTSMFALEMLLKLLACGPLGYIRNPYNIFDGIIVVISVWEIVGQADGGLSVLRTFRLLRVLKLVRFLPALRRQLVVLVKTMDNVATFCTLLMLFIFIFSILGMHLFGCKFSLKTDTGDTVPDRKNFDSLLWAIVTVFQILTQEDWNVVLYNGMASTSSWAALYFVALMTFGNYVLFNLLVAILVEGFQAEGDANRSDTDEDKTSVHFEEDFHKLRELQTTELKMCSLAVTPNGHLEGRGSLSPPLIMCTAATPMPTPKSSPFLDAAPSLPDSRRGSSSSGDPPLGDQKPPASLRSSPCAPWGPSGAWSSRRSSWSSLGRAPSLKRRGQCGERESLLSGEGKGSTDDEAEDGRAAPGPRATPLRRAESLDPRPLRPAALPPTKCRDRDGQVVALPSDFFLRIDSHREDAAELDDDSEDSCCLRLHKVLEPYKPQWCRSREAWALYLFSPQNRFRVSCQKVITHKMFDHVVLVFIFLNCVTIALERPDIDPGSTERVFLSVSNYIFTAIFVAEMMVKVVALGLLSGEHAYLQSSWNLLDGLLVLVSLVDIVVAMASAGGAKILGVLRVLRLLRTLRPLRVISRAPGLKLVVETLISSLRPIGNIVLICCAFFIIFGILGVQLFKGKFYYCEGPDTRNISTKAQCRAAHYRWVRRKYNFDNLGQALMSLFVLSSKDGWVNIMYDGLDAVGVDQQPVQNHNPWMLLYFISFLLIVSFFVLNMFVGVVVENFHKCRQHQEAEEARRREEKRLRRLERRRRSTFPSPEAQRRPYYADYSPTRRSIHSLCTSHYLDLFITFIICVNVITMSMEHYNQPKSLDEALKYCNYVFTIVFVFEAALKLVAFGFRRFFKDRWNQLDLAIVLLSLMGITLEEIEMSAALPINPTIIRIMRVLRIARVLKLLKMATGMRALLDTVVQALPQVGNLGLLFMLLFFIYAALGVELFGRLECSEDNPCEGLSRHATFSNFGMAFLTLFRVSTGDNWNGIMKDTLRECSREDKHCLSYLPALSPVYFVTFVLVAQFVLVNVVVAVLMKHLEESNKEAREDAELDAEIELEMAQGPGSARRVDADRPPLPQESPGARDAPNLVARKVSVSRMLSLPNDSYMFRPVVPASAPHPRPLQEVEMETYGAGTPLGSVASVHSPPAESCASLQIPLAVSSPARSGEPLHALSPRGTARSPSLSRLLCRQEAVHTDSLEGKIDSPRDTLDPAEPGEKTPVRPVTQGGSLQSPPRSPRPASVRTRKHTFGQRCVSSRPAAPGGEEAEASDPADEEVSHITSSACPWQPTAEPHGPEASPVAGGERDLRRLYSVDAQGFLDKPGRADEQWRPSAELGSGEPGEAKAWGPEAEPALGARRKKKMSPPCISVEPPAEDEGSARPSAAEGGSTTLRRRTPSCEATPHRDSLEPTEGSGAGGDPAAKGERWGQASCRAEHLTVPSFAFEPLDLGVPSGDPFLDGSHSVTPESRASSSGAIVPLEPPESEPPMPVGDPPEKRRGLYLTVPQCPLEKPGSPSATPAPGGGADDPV

[3] = target: Lytic switch protein BZLF1 (Epstein-Barr virus (strain B95-8) (HHV-4) (Human herpesvirus 4), UniProt P03206); assay: EBV ZTA inhibitors, dose response, counter-screen for EBNA-1 inhibitor project, biochemical, fluorescence polarization, Epstein-Barr virus, 1536-well (AID 2377); set-up: species or system human gammaherpesvirus 4;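 also: fluorescence polarization of Cy5-labelled ZRE DNA probe bound by purified Zta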
[4] = target: Epstein-Barr nuclear antigen 1 (Epstein-Barr virus (strain B95-8) (HHV-4) (Human herpesvirus 4), UniProt P03211); assay: EBNA-1 inhibitors, dose response, biochemical, fluorescence polarization, 1536-well (AID 2381); set-up: species or system human gammaherpesvirus 4;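 also: fluorescence polarization of a Cy5 DNA probe bound by EBNA-1 protein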
[5] = target: Eukaryotic translation initiation factor 4E (Mus musculus, UniProt P63073); assay: eIF4E–eIF4G protein interaction inhibitors, dose response, biochemical, TR-FRET (AID 855); assay type: functional;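 also: potency for disrupting eIF4E binding to eIF4GI seen as loss of FRET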
Eukaryotic translation initiation factor 4E, sequence (P63073 whole entry): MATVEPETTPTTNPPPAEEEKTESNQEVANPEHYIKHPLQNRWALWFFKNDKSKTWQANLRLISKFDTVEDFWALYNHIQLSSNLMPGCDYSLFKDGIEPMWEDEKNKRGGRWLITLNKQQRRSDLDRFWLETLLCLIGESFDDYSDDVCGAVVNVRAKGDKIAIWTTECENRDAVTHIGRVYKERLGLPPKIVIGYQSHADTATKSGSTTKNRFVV

[6] = target: T1, Estrogen receptor beta (Homo sapiens, UniProt Q92731); assay: ERβ–SRC-3 coactivator interaction inhibitors, confirmation, orthogonal assay, biochemical, ELISA, streptavidin-HRP readout (AID 1060)
T1 sequence (Q92731 whole entry): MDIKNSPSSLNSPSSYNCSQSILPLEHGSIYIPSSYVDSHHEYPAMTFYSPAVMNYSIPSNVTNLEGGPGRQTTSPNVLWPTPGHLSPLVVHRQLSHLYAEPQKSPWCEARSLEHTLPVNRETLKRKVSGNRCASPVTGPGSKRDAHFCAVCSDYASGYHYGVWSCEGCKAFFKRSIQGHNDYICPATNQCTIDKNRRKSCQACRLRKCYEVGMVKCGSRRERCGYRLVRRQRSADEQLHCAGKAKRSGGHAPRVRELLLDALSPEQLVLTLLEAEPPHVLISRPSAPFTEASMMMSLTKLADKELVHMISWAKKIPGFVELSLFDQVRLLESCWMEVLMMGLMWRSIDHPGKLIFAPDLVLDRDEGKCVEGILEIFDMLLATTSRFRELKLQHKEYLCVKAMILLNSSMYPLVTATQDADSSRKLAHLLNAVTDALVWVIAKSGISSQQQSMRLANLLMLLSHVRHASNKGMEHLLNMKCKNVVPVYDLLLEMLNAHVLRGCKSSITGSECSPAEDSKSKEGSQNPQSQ

[7] = target: T2, Dual specificity protein phosphatase 6 (Rattus norvegicus, UniProt Q64346); assay: MKP-3 phosphatase inhibitors, primary screen, biochemical, rat enzyme, in vitro (AID 425)
T2 sequence (Q64346 whole entry): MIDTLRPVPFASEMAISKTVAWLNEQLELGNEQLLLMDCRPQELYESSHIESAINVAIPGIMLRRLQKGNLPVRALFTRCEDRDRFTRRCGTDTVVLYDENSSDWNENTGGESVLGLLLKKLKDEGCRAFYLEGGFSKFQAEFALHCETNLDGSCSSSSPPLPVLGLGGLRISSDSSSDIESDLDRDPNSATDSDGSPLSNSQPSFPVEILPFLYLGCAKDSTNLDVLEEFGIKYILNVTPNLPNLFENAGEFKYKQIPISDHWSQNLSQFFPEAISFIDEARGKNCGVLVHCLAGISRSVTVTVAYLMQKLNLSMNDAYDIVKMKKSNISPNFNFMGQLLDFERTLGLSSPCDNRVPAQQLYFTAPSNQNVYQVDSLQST

[8] = target: T3, Carboxy-terminal domain RNA polymerase II polypeptide A small phosphatase 1 (Homo sapiens, UniProt Q9GZU7); assay: inhibitors of CTDSP1, concentration-response testing, biochemical assay, absorbance-based, actives from ultra-high-throughput screening (AID 540297); assay type: functional
T3 sequence (Q9GZU7 whole entry): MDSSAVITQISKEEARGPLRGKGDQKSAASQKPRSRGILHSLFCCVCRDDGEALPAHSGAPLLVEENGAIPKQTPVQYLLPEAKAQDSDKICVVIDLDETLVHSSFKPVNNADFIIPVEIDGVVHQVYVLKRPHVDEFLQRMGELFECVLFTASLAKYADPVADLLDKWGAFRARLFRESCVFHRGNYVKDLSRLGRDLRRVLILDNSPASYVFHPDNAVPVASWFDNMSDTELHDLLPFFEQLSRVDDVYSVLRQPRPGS

[9] = target: Genome polyprotein (Hepatitis C virus, UniProt Q2Q167); assay: HCV core protein dimerization inhibitors, dose response, biochemical, TR-FRET (AID 2159); set-up: species or system Hepacivirus hominis;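 also: blocks dimerization of HCV core protein measured by TR-FRET between tagged core106 pairs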
Genome polyprotein, sequence (Q2Q167 whole entry): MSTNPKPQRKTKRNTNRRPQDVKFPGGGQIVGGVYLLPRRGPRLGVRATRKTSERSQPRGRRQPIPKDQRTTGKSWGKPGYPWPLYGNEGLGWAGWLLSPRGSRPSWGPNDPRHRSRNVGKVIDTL

[10] = target: T4, Estrogen receptor (Homo sapiens, UniProt P03372);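 also: potency for inhibiting coactivator peptide recruitment to the receptor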
T4 sequence (P03372 whole entry): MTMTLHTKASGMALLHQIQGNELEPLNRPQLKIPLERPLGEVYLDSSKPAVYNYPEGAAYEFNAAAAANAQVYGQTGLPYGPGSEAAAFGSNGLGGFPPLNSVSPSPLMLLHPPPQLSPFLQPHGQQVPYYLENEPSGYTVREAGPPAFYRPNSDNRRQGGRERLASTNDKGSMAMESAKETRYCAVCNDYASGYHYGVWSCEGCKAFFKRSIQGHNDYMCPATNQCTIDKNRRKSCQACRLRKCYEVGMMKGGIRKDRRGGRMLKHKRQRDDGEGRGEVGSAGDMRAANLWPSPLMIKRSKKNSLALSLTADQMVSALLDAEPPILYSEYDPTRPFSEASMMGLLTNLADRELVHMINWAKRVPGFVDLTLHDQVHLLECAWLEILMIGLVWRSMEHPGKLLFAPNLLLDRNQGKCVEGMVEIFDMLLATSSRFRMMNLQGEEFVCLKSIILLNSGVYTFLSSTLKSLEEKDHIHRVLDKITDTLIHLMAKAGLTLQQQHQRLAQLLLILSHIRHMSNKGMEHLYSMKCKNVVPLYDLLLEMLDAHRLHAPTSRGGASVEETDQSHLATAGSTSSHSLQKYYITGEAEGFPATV

[11] = target: T1, Estrogen receptor beta
[12] = target: Cytochrome P450 2C19 (Homo sapiens, UniProt P33261); assay: Cytochrome panel assay with activity outcomes. Panel member name: p450-cyp2c19 Compounds with AC50 equal or less than 10 uM are considered active; assay type: functional; conditions: read-out: AC50
Cytochrome P450 2C19, sequence (P33261 whole entry): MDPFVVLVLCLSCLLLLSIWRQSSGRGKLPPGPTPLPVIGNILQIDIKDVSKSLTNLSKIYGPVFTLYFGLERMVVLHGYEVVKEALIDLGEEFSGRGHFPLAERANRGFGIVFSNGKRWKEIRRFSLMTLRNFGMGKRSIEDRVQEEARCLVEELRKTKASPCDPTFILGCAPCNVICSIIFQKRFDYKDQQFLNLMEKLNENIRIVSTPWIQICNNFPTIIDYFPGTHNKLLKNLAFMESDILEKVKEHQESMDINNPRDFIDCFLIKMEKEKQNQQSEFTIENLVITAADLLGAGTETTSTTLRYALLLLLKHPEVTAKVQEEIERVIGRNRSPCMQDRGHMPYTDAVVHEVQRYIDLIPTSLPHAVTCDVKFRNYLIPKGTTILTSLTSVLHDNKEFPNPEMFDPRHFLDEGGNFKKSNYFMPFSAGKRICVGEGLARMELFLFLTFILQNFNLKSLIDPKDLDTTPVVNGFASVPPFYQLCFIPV

[13] = target: Cytochrome P450 2C9 (Homo sapiens, UniProt P11712)
[14] = target: T5, Leucine aminopeptidase (Plasmodium falciparum 3D7, UniProt Q8IL11); assay: P. falciparum M17LAP inhibitors, primary screen, biochemical, fluorogenic H-Leu-NHMec substrate, 1536-well (AID 1619); assay type: functional
T5 sequence (Q8IL11 whole entry): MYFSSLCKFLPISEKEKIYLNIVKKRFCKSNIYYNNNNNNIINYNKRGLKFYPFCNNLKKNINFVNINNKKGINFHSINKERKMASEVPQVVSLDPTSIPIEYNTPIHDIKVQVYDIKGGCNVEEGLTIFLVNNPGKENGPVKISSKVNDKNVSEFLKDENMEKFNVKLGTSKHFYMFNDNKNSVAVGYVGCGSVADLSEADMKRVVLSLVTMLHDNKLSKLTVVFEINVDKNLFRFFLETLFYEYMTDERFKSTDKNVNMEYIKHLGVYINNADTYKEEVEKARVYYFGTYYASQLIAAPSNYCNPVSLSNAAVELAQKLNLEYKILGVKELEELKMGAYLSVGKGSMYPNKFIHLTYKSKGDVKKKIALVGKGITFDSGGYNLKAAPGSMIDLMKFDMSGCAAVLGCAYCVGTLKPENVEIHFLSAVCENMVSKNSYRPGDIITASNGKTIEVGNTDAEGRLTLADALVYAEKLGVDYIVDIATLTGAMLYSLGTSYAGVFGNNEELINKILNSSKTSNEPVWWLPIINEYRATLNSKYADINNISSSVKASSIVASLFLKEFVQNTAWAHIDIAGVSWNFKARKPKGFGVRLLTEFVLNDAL

[15] = target: Procathepsin L (Homo sapiens, UniProt P07711); assay: cathepsin L inhibitors, dose response, counter-screen for M1/M17 aminopeptidase inhibitor project, biochemical, QFRET, 1536-well (AID 2214)
Procathepsin L, sequence (P07711 whole entry): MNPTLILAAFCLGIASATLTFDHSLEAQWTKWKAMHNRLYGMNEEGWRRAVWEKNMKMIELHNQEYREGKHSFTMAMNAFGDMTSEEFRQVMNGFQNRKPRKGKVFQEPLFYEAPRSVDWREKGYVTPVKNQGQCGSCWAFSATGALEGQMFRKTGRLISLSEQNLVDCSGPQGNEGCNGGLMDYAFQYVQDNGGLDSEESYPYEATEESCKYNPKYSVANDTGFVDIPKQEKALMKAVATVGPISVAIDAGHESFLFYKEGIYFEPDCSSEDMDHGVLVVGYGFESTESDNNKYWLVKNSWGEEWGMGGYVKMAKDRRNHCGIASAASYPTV

[16] = target: Aspartyl aminopeptidase (Plasmodium falciparum 3D7, UniProt Q8I2J3); assay: Counterscreen for inhibitors of M1 and M17 aminopeptidases: QFRET-based biochemical high throughput dose response assay for inhibitors of the Plasmodium falciparum M18 Aspartyl Aminopeptidase (PFM18AAP). [Related PubChem assays: 1619 (Screening assay (M17LAP inhibitors).), 1445 (Screening assay (M1AAP inhibitors).)]
[17] = tested on: Vero; assay: West Nile virus antiviral activity, cell-based, CPE readout (AID 1621); assay type: functional; conditions: Chlorocebus sabaeus
[18] = tested on: Vero; assay: host cell cytotoxicity of antiviral hits, dose response, cytotoxicity control for West Nile virus antiviral project, secondary assay (AID 1650); assay type: functional; conditions: Chlorocebus sabaeus
[19] = target: Beta-galactosidase (Escherichia coli, UniProt Q8VNN2); assay: PubChem AID 485352; assay type: functional
Beta-galactosidase, sequence (Q8VNN2 whole entry): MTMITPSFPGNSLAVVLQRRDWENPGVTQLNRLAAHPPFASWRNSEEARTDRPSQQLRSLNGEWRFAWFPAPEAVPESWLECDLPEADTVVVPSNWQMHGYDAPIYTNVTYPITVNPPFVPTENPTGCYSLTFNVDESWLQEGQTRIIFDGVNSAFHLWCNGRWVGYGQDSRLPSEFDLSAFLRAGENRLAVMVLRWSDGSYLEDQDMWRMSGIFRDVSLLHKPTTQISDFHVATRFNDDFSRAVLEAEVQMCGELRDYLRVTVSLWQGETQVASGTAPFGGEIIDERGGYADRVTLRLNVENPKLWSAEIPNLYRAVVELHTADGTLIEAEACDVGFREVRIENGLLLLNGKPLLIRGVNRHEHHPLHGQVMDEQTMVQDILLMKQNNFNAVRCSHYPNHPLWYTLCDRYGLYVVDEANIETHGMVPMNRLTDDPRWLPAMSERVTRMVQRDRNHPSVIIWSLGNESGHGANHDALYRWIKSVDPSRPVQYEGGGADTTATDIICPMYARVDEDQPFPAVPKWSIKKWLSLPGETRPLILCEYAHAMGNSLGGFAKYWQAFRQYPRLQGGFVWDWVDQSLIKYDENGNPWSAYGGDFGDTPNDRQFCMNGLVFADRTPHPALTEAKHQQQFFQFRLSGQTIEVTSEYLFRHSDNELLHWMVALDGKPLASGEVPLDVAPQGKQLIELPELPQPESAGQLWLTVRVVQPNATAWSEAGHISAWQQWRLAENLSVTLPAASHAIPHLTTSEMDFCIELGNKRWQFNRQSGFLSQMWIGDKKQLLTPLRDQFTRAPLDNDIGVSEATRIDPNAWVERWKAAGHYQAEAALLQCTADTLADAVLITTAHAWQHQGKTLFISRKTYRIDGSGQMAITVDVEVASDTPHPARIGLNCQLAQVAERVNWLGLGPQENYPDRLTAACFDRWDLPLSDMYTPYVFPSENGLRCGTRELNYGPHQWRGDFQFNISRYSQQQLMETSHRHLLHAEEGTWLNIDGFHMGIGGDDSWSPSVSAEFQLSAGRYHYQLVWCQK

[20] = target: Protein-tyrosine kinase 2-beta (Homo sapiens, UniProt Q14289);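 also: potency of inhibitors of PYK2 kinase phosphorylation of poly-GT substrate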
[21] = target: T6, Type-1 angiotensin II receptor (Homo sapiens, UniProt P30556); assay: AT1 receptor antagonists, dose response, selectivity assay for APJ receptor antagonist project, cell-based, uHTS hits (AID 463214); assay type: functional;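 also: antagonist potency against angiotensin II stimulated AT1 response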
T6 sequence (P30556 whole entry): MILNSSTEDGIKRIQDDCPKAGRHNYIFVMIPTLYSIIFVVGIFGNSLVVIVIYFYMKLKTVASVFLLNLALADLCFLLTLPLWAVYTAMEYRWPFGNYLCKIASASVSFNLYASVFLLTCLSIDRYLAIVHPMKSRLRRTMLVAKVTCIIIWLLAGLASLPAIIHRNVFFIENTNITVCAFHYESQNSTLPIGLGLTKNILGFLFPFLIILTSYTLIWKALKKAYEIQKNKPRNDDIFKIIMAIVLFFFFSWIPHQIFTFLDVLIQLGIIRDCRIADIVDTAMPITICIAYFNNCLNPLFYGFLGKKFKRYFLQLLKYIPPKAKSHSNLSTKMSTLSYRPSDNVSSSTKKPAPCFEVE

IC50 [1]: 36.7 µM (not active)
EC50 [2]: 3.67 µM (active)
Structure (SMILES): CC(=O)N1CCN(c2ccccc2NC(=O)COc2cc(C)ccc2C(C)C)CC1

IC50 [3]: > 111 µM (not active)
IC50 [4]: > 16.4 µM (not active)
Structure (SMILES): Cc1ccc(NC(=O)CSc2ccc(-c3ccccn3)nn2)cc1F

IC50 [5]: 35.4 µM (inactive)
IC50 [6]: 0.161 µM (not active)
IC50 [7]: > 10 µM (not active)
IC50 [8]: 5.33 µM (active)
IC50 [9]: > 49.8 µM (not active)
IC50 [10]: 3.02 µM (active)
IC50 [11]: < 1.56 µM (active)
Structure (SMILES): O=C1Nc2ccccc2SC(c2ccccc2)C1O (stereo unspecified)

AC50 [12]: 28.2 µM (inconclusive)
AC50 [13]: 25.1 µM (inconclusive)
IC50 [14]: 4.8 µM (active)
IC50 [15]: > 59.6 µM (not active)
IC50 [16]: > 73.5 µM (not active)
Structure (SMILES): CCOC(=O)c1c(-c2ccc(C)cc2)csc1NC(=O)C1CC=CCC1C(=O)O (stereo unspecified)

Structure (SMILES): COc1ccc(C2c3ccc4ccccc4c3Oc3ncn(CCCO)c(=N)c32)cc1OC (stereo unspecified)
IC50 [17]: 21.5 µM (active)
CC50 [18]: 19.7 µM (active)

EC50 [19]: > 40 µM (inactive)
IC50 [20]: > 69.5 µM (not active)
IC50 [21]: > 40 µM (not active)
Structure (SMILES): CCOCCO/C(O)=C1\C(C)=NC2=C(C(=O)CC(c3cccs3)C2)C1c1ccsc1 (stereo unspecified)
